From PubChem BioAssay (NCI)
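Tested at 5 concentrations; 48 h exposure; 96-well plates; endpoints linearly interpolated, else capped at highest concentration. TGI: concentration producing complete growth inhibition.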

What was measured:
Assay in all cases: NCI anticancer screen, dose series, 48 h
BT-549 breast = tested on: BT-549 breast
SNB-75 CNS = tested on: SNB-75 CNS
NCI/ADR-RES ovarian = tested on: NCI/ADR-RES ovarian
UO-31 renal = tested on: UO-31 renal
786-0 renal = tested on: 786-0 renal
SK-MEL-28 melanoma = tested on: SK-MEL-28 melanoma
M14 melanoma = tested on: M14 melanoma
MOLT-4 leukemia = tested on: MOLT-4 leukemia
UACC-257 melanoma = tested on: UACC-257 melanoma
HOP-92 NSCLC = tested on: HOP-92 NSCLC
MALME-3M melanoma = tested on: MALME-3M melanoma
HCT-116 colon = tested on: HCT-116 colon
KM12 colon = tested on: KM12 colon
SF-539 CNS = tested on: SF-539 CNS
MDA-MB-231 breast = tested on: MDA-MB-231 breast
MDA-MB-435 = tested on: MDA-MB-435
OVCAR-4 ovarian = tested on: OVCAR-4 ovarian
DU-145 prostate = tested on: DU-145 prostate
OVCAR-3 ovarian = tested on: OVCAR-3 ovarian
SN12C renal = tested on: SN12C renal
SF-268 CNS = tested on: SF-268 CNS
SR leukemia = tested on: SR leukemia
RPMI-8226 leukemia = tested on: RPMI-8226 leukemia
IGROV1 ovarian = tested on: IGROV1 ovarian
SK-MEL-2 melanoma = tested on: SK-MEL-2 melanoma
CCRF-CEM leukemia = tested on: CCRF-CEM leukemia
RXF 393 renal = tested on: RXF 393 renal
HCC-2998 colon = tested on: HCC-2998 colon
PC-3 prostate = tested on: PC-3 prostate
COLO 205 colon = tested on: COLO 205 colon
A549 NSCLC = tested on: A549 NSCLC
SW-620 colon = tested on: SW-620 colon
NCI-H460 lung = tested on: NCI-H460 lung
NCI-H23 lung = tested on: NCI-H23 lung
K-562 leukemia = tested on: K-562 leukemia
HCT-15 colon = tested on: HCT-15 colon
UACC-62 melanoma = tested on: UACC-62 melanoma
EKVX NSCLC = tested on: EKVX NSCLC
MCF7 breast = tested on: MCF7 breast
OVCAR-5 ovarian = tested on: OVCAR-5 ovarian
TK-10 renal = tested on: TK-10 renal
U251 CNS = tested on: U251 CNS
A498 renal = tested on: A498 renal
ACHN renal = tested on: ACHN renal
CAKI-1 renal = tested on: CAKI-1 renal
SF-295 CNS = tested on: SF-295 CNS
HT29 colon = tested on: HT29 colon
SNB-19 CNS = tested on: SNB-19 CNS
NCI-H226 lung = tested on: NCI-H226 lung
LOX IMVI melanoma = tested on: LOX IMVI melanoma
HS 578T breast = tested on: HS 578T breast
NCI-H522 lung = tested on: NCI-H522 lung
MDA-N = tested on: MDA-N
T-47D breast = tested on: T-47D breast
SK-MEL-5 melanoma = tested on: SK-MEL-5 melanoma
OVCAR-8 ovarian = tested on: OVCAR-8 ovarian
SK-OV-3 ovarian = tested on: SK-OV-3 ovarian
HL-60(TB) leukemia = tested on: HL-60(TB) leukemia
HOP-62 NSCLC = tested on: HOP-62 NSCLC

`Nn1c(SCC(=O)O)nc2ccccc2c1=O` showed a TGI (BT-549 breast) greater than 100 µM, a TGI (SNB-75 CNS) greater than 100 µM and a TGI (NCI/ADR-RES ovarian) greater than 100 µM. The TGI (UO-31 renal) was greater than 100 µM, the TGI (786-0 renal) was greater than 100 µM and the TGI (SK-MEL-28 melanoma) was greater than 100 µM. The TGI (M14 melanoma) was greater than 100 µM, the TGI (MOLT-4 leukemia) was greater than 100 µM and the TGI (UACC-257 melanoma) was greater than 100 µM. The TGI (HOP-92 NSCLC) was greater than 100 µM, the TGI (MALME-3M melanoma) was greater than 100 µM and the TGI (HCT-116 colon) was greater than 100 µM. It also gave a TGI (KM12 colon) greater than 100 µM, a TGI (SF-539 CNS) greater than 100 µM and a TGI (MDA-MB-231 breast) greater than 100 µM. For the same compound, the TGI (MDA-MB-435) was greater than 100 µM, the TGI (OVCAR-4 ovarian) was greater than 100 µM and the TGI (DU-145 prostate) was greater than 100 µM. It also gave a TGI (OVCAR-3 ovarian) greater than 100 µM, a TGI (SN12C renal) greater than 100 µM and a TGI (SF-268 CNS) greater than 100 µM. The TGI (SR leukemia) was greater than 100 µM, the TGI (RPMI-8226 leukemia) was greater than 100 µM and the TGI (IGROV1 ovarian) was greater than 100 µM. For the same compound, the TGI (SK-MEL-2 melanoma) was greater than 100 µM, the TGI (CCRF-CEM leukemia) was greater than 100 µM and the TGI (RXF 393 renal) was greater than 100 µM. It also gave a TGI (HCC-2998 colon) greater than 100 µM, a TGI (PC-3 prostate) greater than 100 µM and a TGI (COLO 205 colon) greater than 100 µM. For the same compound, the TGI (A549 NSCLC) was greater than 100 µM, the TGI (SW-620 colon) was greater than 100 µM and the TGI (NCI-H460 lung) was greater than 100 µM. It also gave a TGI (NCI-H23 lung) greater than 100 µM, a TGI (K-562 leukemia) greater than 100 µM and a TGI (HCT-15 colon) greater than 100 µM. The TGI (UACC-62 melanoma) was greater than 100 µM, the TGI (EKVX NSCLC) was greater than 100 µM and the TGI (MCF7 breast) was greater than 100 µM. It also gave a TGI (OVCAR-5 ovarian) greater than 100 µM, a TGI (TK-10 renal) greater than 100 µM and a TGI (U251 CNS) greater than 100 µM. For the same compound, the TGI (A498 renal) was greater than 100 µM, the TGI (ACHN renal) was greater than 100 µM and the TGI (CAKI-1 renal) was greater than 100 µM. The TGI (SF-295 CNS) was greater than 100 µM, the TGI (HT29 colon) was greater than 100 µM and the TGI (SNB-19 CNS) was greater than 100 µM. The TGI (NCI-H226 lung) was greater than 100 µM, the TGI (LOX IMVI melanoma) was greater than 100 µM and the TGI (HS 578T breast) was greater than 100 µM. For the same compound, the TGI (NCI-H522 lung) was greater than 100 µM, the TGI (MDA-N) was greater than 100 µM and the TGI (T-47D breast) was greater than 100 µM. For the same compound, the TGI (SK-MEL-5 melanoma) was greater than 100 µM and the TGI (OVCAR-8 ovarian) was greater than 100 µM.
For `Cc1cc(=O)[nH]c(S(=O)(=O)NC(=S)Nc2ccc(Cl)cc2)n1`, the TGI (BT-549 breast) was greater than 100 µM, the TGI (SNB-75 CNS) was greater than 100 µM and the TGI (NCI/ADR-RES ovarian) was greater than 100 µM. For the same compound, the TGI (UO-31 renal) was greater than 100 µM, the TGI (786-0 renal) was greater than 100 µM and the TGI (SK-MEL-28 melanoma) was greater than 100 µM. It also gave a TGI (M14 melanoma) greater than 100 µM, a TGI (MOLT-4 leukemia) greater than 100 µM and a TGI (UACC-257 melanoma) greater than 100 µM. It also gave a TGI (HOP-92 NSCLC) greater than 100 µM, a TGI (MALME-3M melanoma) greater than 100 µM and a TGI (HCT-116 colon) greater than 100 µM. For the same compound, the TGI (KM12 colon) was greater than 100 µM, the TGI (SF-539 CNS) was greater than 100 µM and the TGI (MDA-MB-231 breast) was greater than 100 µM. The TGI (MDA-MB-435) was greater than 100 µM, the TGI (OVCAR-4 ovarian) was greater than 100 µM and the TGI (SK-OV-3 ovarian) was greater than 100 µM. For the same compound, the TGI (DU-145 prostate) was greater than 100 µM, the TGI (OVCAR-3 ovarian) was greater than 100 µM and the TGI (SN12C renal) was greater than 100 µM. It also gave a TGI (SF-268 CNS) greater than 100 µM, a TGI (SR leukemia) greater than 100 µM and a TGI (RPMI-8226 leukemia) greater than 100 µM. It also gave a TGI (IGROV1 ovarian) greater than 100 µM, a TGI (SK-MEL-2 melanoma) greater than 100 µM and a TGI (CCRF-CEM leukemia) greater than 100 µM. For the same compound, the TGI (RXF 393 renal) was greater than 100 µM, the TGI (HCC-2998 colon) was greater than 100 µM and the TGI (PC-3 prostate) was greater than 100 µM. For the same compound, the TGI (COLO 205 colon) was greater than 100 µM, the TGI (A549 NSCLC) was greater than 100 µM and the TGI (SW-620 colon) was greater than 100 µM. For the same compound, the TGI (NCI-H460 lung) was greater than 100 µM, the TGI (NCI-H23 lung) was greater than 100 µM and the TGI (HCT-15 colon) was greater than 100 µM. For the same compound, the TGI (UACC-62 melanoma) was greater than 100 µM, the TGI (EKVX NSCLC) was greater than 100 µM and the TGI (MCF7 breast) was greater than 100 µM. For the same compound, the TGI (OVCAR-5 ovarian) was greater than 100 µM, the TGI (TK-10 renal) was greater than 100 µM and the TGI (U251 CNS) was greater than 100 µM. For the same compound, the TGI (A498 renal) was greater than 100 µM, the TGI (ACHN renal) was greater than 100 µM and the TGI (CAKI-1 renal) was greater than 100 µM. The TGI (SF-295 CNS) was greater than 100 µM, the TGI (HL-60(TB) leukemia) was greater than 100 µM and the TGI (HT29 colon) was greater than 100 µM. The TGI (SNB-19 CNS) was greater than 100 µM, the TGI (NCI-H226 lung) was greater than 100 µM and the TGI (HS 578T breast) was greater than 100 µM. The TGI (HOP-62 NSCLC) was greater than 100 µM, the TGI (NCI-H522 lung) was 84.6 µM and the TGI (MDA-N) was greater than 100 µM. The TGI (T-47D breast) was greater than 100 µM, the TGI (SK-MEL-5 melanoma) was greater than 100 µM and the TGI (OVCAR-8 ovarian) was greater than 100 µM.
In the case of `ONCCCn1cnc2c(NC3CC3)ncnc21`, the TGI (BT-549 breast) is reported as greater than 100 µM, the TGI (SNB-75 CNS) is reported as greater than 100 µM and the TGI (NCI/ADR-RES ovarian) is reported as greater than 100 µM. It also gave a TGI (UO-31 renal) greater than 100 µM, a TGI (786-0 renal) greater than 100 µM and a TGI (SK-MEL-28 melanoma) greater than 100 µM. It also gave a TGI (M14 melanoma) greater than 100 µM, a TGI (MOLT-4 leukemia) greater than 100 µM and a TGI (UACC-257 melanoma) greater than 100 µM. For the same compound, the TGI (HOP-92 NSCLC) was greater than 100 µM, the TGI (MALME-3M melanoma) was greater than 100 µM and the TGI (HCT-116 colon) was greater than 100 µM. For the same compound, the TGI (KM12 colon) was greater than 100 µM, the TGI (SF-539 CNS) was greater than 100 µM and the TGI (MDA-MB-231 breast) was greater than 100 µM. It also gave a TGI (MDA-MB-435) greater than 100 µM, a TGI (OVCAR-4 ovarian) greater than 100 µM and a TGI (SK-OV-3 ovarian) greater than 100 µM. It also gave a TGI (DU-145 prostate) greater than 100 µM, a TGI (OVCAR-3 ovarian) greater than 100 µM and a TGI (SN12C renal) greater than 100 µM. The TGI (SF-268 CNS) was greater than 100 µM, the TGI (SR leukemia) was greater than 100 µM and the TGI (RPMI-8226 leukemia) was greater than 100 µM. It also gave a TGI (IGROV1 ovarian) greater than 100 µM, a TGI (SK-MEL-2 melanoma) greater than 100 µM and a TGI (CCRF-CEM leukemia) greater than 100 µM. For the same compound, the TGI (RXF 393 renal) was greater than 100 µM, the TGI (HCC-2998 colon) was greater than 100 µM and the TGI (PC-3 prostate) was greater than 100 µM. For the same compound, the TGI (COLO 205 colon) was greater than 100 µM, the TGI (A549 NSCLC) was greater than 100 µM and the TGI (SW-620 colon) was greater than 100 µM. It also gave a TGI (NCI-H460 lung) greater than 100 µM, a TGI (NCI-H23 lung) greater than 100 µM and a TGI (K-562 leukemia) greater than 100 µM. It also gave a TGI (HCT-15 colon) greater than 100 µM, a TGI (UACC-62 melanoma) greater than 100 µM and a TGI (EKVX NSCLC) greater than 100 µM. For the same compound, the TGI (MCF7 breast) was greater than 100 µM, the TGI (OVCAR-5 ovarian) was greater than 100 µM and the TGI (TK-10 renal) was greater than 100 µM. For the same compound, the TGI (U251 CNS) was greater than 100 µM, the TGI (A498 renal) was greater than 100 µM and the TGI (ACHN renal) was greater than 100 µM. For the same compound, the TGI (CAKI-1 renal) was greater than 100 µM, the TGI (SF-295 CNS) was greater than 100 µM and the TGI (HT29 colon) was greater than 100 µM. It also gave a TGI (SNB-19 CNS) greater than 100 µM, a TGI (NCI-H226 lung) greater than 100 µM and a TGI (LOX IMVI melanoma) greater than 100 µM. For the same compound, the TGI (HS 578T breast) was greater than 100 µM, the TGI (HOP-62 NSCLC) was greater than 100 µM and the TGI (NCI-H522 lung) was greater than 100 µM. For the same compound, the TGI (MDA-N) was greater than 100 µM, the TGI (T-47D breast) was greater than 100 µM and the TGI (SK-MEL-5 melanoma) was greater than 100 µM. It also gave a TGI (OVCAR-8 ovarian) greater than 100 µM.
